Values quoted from earlier work as cited in US10314326B2, “Composition for reducing food intake” (Natures Remedies Ltd, priority 2009, dated 2019).
Read-outs that look alike come from different tables or passages of the source. No end group written: not given here.

Columns and labels:
[1] = literature; for reduction in food/calorie intake: pharmacological options
[2] = approximately 20 g per day for 7 days, human volunteers
[3] = peripheral injection, rats
[4] = peripheral injection, human subjects
[5] = 14 healthy volunteers

## CC(C)CC(N(C)C)C1(c2ccc(Cl)cc2)CCC1 (stereo not drawn) [sibutramine]
[1]
  reduction in food/calorie intake: 12-26%

## beta-glucan
[1]
  food intake and appetite ratings: not significantly reduced

## methylcellulose
[1]
  food intake and appetite ratings: not significantly reduced

## CCN(CC)C(C)C(=O)c1ccccc1 (stereo not drawn) [diethylpropion]
[1]
  reduction in food/calorie intake: 11-15%

## sodium alginate
[1]; human studies
  reduction in energy intake: 7%

## O=C(O)CC(O)(C(=O)O)C(O)C(=O)O (stereo not drawn) [HCA-SX, hydroxycitric acid]
[1]; human studies
  decrease in food intake: 4%

## oligofructose
[1]; human studies
  reduction in total intake: 5%
[2]
  serum GLP-1 levels: increased

## CNCCC(Oc1ccc(C(F)(F)F)cc1)c1ccccc1 (stereo not drawn) [fluoxetin]
[1]
  reduction in food/calorie intake: 13-16%

## fructooligosaccharides
[1]
  food intake and appetite ratings: not significantly reduced

## glucagon-like peptide-1 (7-36) amide (HAEGTFTSDVSSYLEGQAAKEFIAWLVKGR-NH2; UniProt P01275 98-127, looked up) [GLP-1, anorectic gut peptide secreted by the L-cells]
[3]
  body weight: decreases
  food intake: decreases
[4]
  body weight: decreases
  food intake: decreases
[5]
  motility in the antro-duodeno-jejunal region: decreases
